Laboratory results published in patent US4312867A, “Antibacterial compounds, processes for their preparation and compositions containing them” (Beecham Group Limited, priority 1979, dated 1982).
≈ marks a conversion by molar mass, not a printed value. Read-outs that look alike come from different tables or passages of the source.

What was measured:
Strep faecalis I = test: MIC human bacteria (Table 1), serial dilution in nutrient agar; type: cell-based; details: nutrient agar with 5% chocolated horse blood
Bord bronchiseptica B08 = test: MIC veterinary bacteria (Table 2), serial dilution in agar; type: cell-based; details: diagnostic sensitivity test agar
E. coli NCTC 10418 [1] = test: MIC human bacteria (Table 1), serial dilution in nutrient agar; type: cell-based; details: Escherichia coli, NCTC10418; E. coli NCTC 10418; nutrient agar with 5% chocolated horse blood; read-out: MIC
Bacillus subtilis 6633 = test: as above; type: cell-based; details: nutrient agar with 5% chocolated horse blood
Past multocida PA2 = test: MIC veterinary bacteria (Table 2), serial dilution in agar; type: cell-based; details: diagnostic sensitivity test agar
Strep dysgalaciae SPD1 = test: as above; type: cell-based; details: diagnostic sensitivity test agar
[2] = system: Erysipelothrix rhusiopathiae NCTC 8163; test: as above; type: cell-based; details: NCTC8163
[3] = system: Strep suis (group D) SPS11; test: as above; type: cell-based; details: diagnostic sensitivity test agar
K. aerogenes A = test: MIC human bacteria (Table 1), serial dilution in nutrient agar; type: cell-based; details: Klebsiella aerogenes, nutrient agar with 5% chocolated horse blood
Staph aureus Oxford [4] = test: MIC veterinary bacteria (Table 2), serial dilution in agar; type: cell-based; details: Staphylococcus aureus; Staph aureus Oxford; diagnostic sensitivity test agar; read-out: MIC
[5] = system: Pasteurella multocida 1633; test: MIC human bacteria (Table 1), serial dilution in nutrient agar; type: cell-based
E. coli ESS = test: as above; type: cell-based; details: Escherichia coli; E. coli ESS; nutrient agar with 5% chocolated horse blood; read-out: MIC
[6] = system: Staph aureus 152 (pen. sens); test: MIC veterinary bacteria (Table 2), serial dilution in agar; type: cell-based; details: Staphylococcus aureus, diagnostic sensitivity test agar
E. coli NCTC 10418 [7] = test: as above; type: cell-based; details: Escherichia coli, NCTC10418; E. coli NCTC 10418; diagnostic sensitivity test agar; read-out: MIC
Strep pneumoniae CN33 = test: MIC human bacteria (Table 1), serial dilution in nutrient agar; type: cell-based; details: nutrient agar with 5% chocolated horse blood
[8] = system: Haemophilus influenzae Wy21; test: as above; type: cell-based; details: Haemophilus influenzae Wy21; nutrient agar with 5% chocolated horse blood; read-out: MIC
[9] = system: Staph aureus B4 (pen. resis); test: MIC veterinary bacteria (Table 2), serial dilution in agar; type: cell-based; details: Staphylococcus aureus; Staph aureus B4 (pen. resis); diagnostic sensitivity test agar; read-out: MIC
Ps. aeruginosa 10662 = test: MIC human bacteria (Table 1), serial dilution in nutrient agar; type: cell-based; details: Pseudomonas aeruginosa, nutrient agar with 5% chocolated horse blood
Strep uberis SPU1 = test: MIC veterinary bacteria (Table 2), serial dilution in agar; type: cell-based; details: diagnostic sensitivity test agar
Staph aureus Oxford [10] = test: MIC human bacteria (Table 1), serial dilution in nutrient agar; type: cell-based; details: Staphylococcus aureus, nutrient agar with 5% chocolated horse blood
Strep pyogenes A 64/848 = test: as above; type: cell-based; details: nutrient agar with 5% chocolated horse blood
Staph aureus W2827 = test: as above; type: cell-based; details: Staphylococcus aureus, nutrient agar with 5% chocolated horse blood
E. coli E1 = test: MIC veterinary bacteria (Table 2), serial dilution in agar; type: cell-based; details: Escherichia coli, diagnostic sensitivity test agar
Strep pyogenes C 2761 = test: MIC human bacteria (Table 1), serial dilution in nutrient agar; type: cell-based; details: nutrient agar with 5% chocolated horse blood
Past multocida PA1 = test: MIC veterinary bacteria (Table 2), serial dilution in agar; type: cell-based; details: diagnostic sensitivity test agar
S. typhimurium S18 = test: as above; type: cell-based; details: Salmonella enterica, diagnostic sensitivity test agar
Strep pyogenes B 2788 = test: MIC human bacteria (Table 1), serial dilution in nutrient agar; type: cell-based; details: nutrient agar with 5% chocolated horse blood
[11] = system: Corynebacterium xerosis 9755; test: as above; type: cell-based; details: nutrient agar with 5% chocolated horse blood
[12] = system: Haemophilus influenzae Q1; test: as above; type: cell-based; details: Haemophilus influenzae Q1; nutrient agar with 5% chocolated horse blood; read-out: MIC
[13] = system: Neisseria catarrhalis 1502; test: as above; type: cell-based; details: nutrient agar with 5% chocolated horse blood
Strep agalactiae SPA1 = test: MIC veterinary bacteria (Table 2), serial dilution in agar; type: cell-based; details: diagnostic sensitivity test agar
S. dublin S7 = test: as above; type: cell-based; details: Salmonella enterica, diagnostic sensitivity test agar
P. mirabilis 889 = test: MIC human bacteria (Table 1), serial dilution in nutrient agar; type: cell-based; details: Proteus mirabilis; P. mirabilis 889; nutrient agar with 5% chocolated horse blood; read-out: MIC
Staph aureus Russell = test: as above; type: cell-based; details: Staphylococcus aureus, nutrient agar with 5% chocolated horse blood
[14] = Serum binding by ultrafiltration of porcine serum; type: in vitro ADME; details: pig, 8 mcg/ml, microbiological assay, read-out: % bound to pig serum (converted)
Description: Serum binding was assessed by ultrafiltration of porcine serum containing compounds at 8 mcg/ml, and through an Amicon CF50A ultrafiltration cone. Separation of ultrafiltrate was achieved by centrifugation. Unbound concentrations of compound were measured in the ultrafiltrate by microbiological assay (B. subtilis ATCC 6633) against standards prepared in saline.

Bord bronchiseptica B09 = test: MIC veterinary bacteria (Table 2), serial dilution in agar; type: cell-based; details: diagnostic sensitivity test agar
Sarcina lutea 8340 = test: MIC human bacteria (Table 1), serial dilution in nutrient agar; type: cell-based; details: nutrient agar with 5% chocolated horse blood
[15] = system: 12 strains of M. suipneumoniae; test: anti-mycoplasmal MIC, Friis broth solidified with agarose (Table 4), mean over strains; type: cell-based; details: Mesomycoplasma hyopneumoniae, 144 h; mean of 12 strains; 6 days at 37° C.; read-out: Mean MIC for above 12 strains of M. suipneumoniae
M. suipneumoniae HK(2) = test: anti-mycoplasmal MIC, Friis broth solidified with agarose (Table 4); type: cell-based; details: Mesomycoplasma hyopneumoniae, 144 h, 6 days at 37° C.
[16] = system: Corynebacterium pyogenes CY1; test: MIC veterinary bacteria (Table 2), serial dilution in agar; type: cell-based; details: Trueperella pyogenes, diagnostic sensitivity test agar

For C/C(=C\C(=O)OCCCCCCCCS(N)(=O)=O)CC1OCC(CC2OC2C(C)C(C)O)C(O)C1O (centres unmarked) [Example 3, 8-Sulphamoyloctyl monate A], the MIC (Strep faecalis I) was over 100 µg/mL, the MIC (Bord bronchiseptica B08) was 80 µg/mL (≈ 149 µM) and the MIC (E. coli NCTC 10418 [1]) was over 100 µg/mL. For the same compound, the MIC (Bacillus subtilis 6633) was 0.2 µg/mL (≈ 0.373 µM), the MIC (Past multocida PA2) was 0.156 µg/mL (≈ 0.291 µM) and the MIC (Strep dysgalaciae SPD1) was 2.5 µg/mL (≈ 4.67 µM). It also gave an MIC ([2]; Erysipelothrix rhusiopathiae NCTC 8163, diagnostic sensitivity test agar, read-out: MIC) of 10 µg/mL (≈ 18.7 µM), an MIC [3] of 20 µg/mL (≈ 37.3 µM) and an MIC (K. aerogenes A) of over 100 µg/mL. It also gave an MIC (Staph aureus Oxford [4]) of 0.625 µg/mL (≈ 1.17 µM), an MIC ([5]; Pasteurella multocida, 1633) of 1 µg/mL (≈ 1.87 µM) and an MIC (E. coli ESS) of 0.5 µg/mL (≈ 0.933 µM). It also gave an MIC [6] of 0.625 µg/mL (≈ 1.17 µM), an MIC (E. coli NCTC 10418 [7]) of over 80 µg/mL and an MIC (Strep pneumoniae CN33) of 0.5 µg/mL (≈ 0.933 µM). It also gave an MIC [8] of 0.2 µg/mL (≈ 0.373 µM), an MIC [9] of 0.625 µg/mL (≈ 1.17 µM) and an MIC (Ps. aeruginosa 10662) of over 100 µg/mL. The MIC (Strep uberis SPU1) was 1.25 µg/mL (≈ 2.33 µM), the MIC (Staph aureus Oxford [10]) was 1 µg/mL (≈ 1.87 µM) and the MIC (Strep pyogenes A 64/848) was 0.5 µg/mL (≈ 0.933 µM). It also gave an MIC (Staph aureus W2827) of 1 µg/mL (≈ 1.87 µM), an MIC (E. coli E1) of over 80 µg/mL and an MIC (Strep pyogenes C 2761) of 1 µg/mL (≈ 1.87 µM). It also gave an MIC (Past multocida PA1) of 1.25 µg/mL (≈ 2.33 µM), an MIC (S. typhimurium S18) of over 80 µg/mL and an MIC (Strep pyogenes B 2788) of 1 µg/mL (≈ 1.87 µM). For the same compound, the MIC ([11]; read-out: MIC) was over 100 µg/mL, the MIC [12] was 0.2 µg/mL (≈ 0.373 µM) and the MIC [13] was 1 µg/mL (≈ 1.87 µM). The MIC (Strep agalactiae SPA1) was 2.5 µg/mL (≈ 4.67 µM), the MIC (S. dublin S7) was over 80 µg/mL and the MIC (P. mirabilis 889) was over 100 µg/mL. It also gave an MIC (Staph aureus Russell) of 1 µg/mL (≈ 1.87 µM), a fraction unbound [14] of 0.035 and an MIC (Bord bronchiseptica B09) of 40 µg/mL (≈ 74.7 µM). The MIC (Sarcina lutea 8340; Micrococcus luteus, read-out: MIC) was over 100 µg/mL.

With C/C(=C\C(=O)OC(C)CCCCCS(N)(=O)=O)CC1OCC(CC2OC2C(C)C(C)O)C(O)C1O (centres unmarked) [Example 5, 7-Sulphamoylhept-2-yl monate A] the MIC (Strep faecalis I) was over 100 µg/mL, the MIC (Bord bronchiseptica B08) was 40 µg/mL (≈ 76.7 µM) and the MIC [15] was 480 µg/mL (≈ 920 µM). The MIC (E. coli NCTC 10418 [1]) was over 100 µg/mL, the MIC (Bacillus subtilis 6633) was 2.5 µg/mL (≈ 4.79 µM) and the MIC (Past multocida PA2) was 0.312 µg/mL (≈ 0.598 µM). The MIC (Strep dysgalaciae SPD1) was 0.625 µg/mL (≈ 1.2 µM), the MIC ([2]; Erysipelothrix rhusiopathiae) was 40 µg/mL (≈ 76.7 µM) and the MIC [3] was 5 µg/mL (≈ 9.58 µM). For the same compound, the MIC (K. aerogenes A) was over 100 µg/mL, the MIC (Staph aureus Oxford [4]) was 1.25 µg/mL (≈ 2.4 µM) and the MIC ([5]; Pasteurella multocida 1633, nutrient agar with 5% chocolated horse blood, read-out: MIC) was 2.5 µg/mL (≈ 4.79 µM). The MIC (E. coli ESS) was 2.5 µg/mL (≈ 4.79 µM), the MIC [6] was 1.25 µg/mL (≈ 2.4 µM) and the MIC (E. coli NCTC 10418 [7]) was over 80 µg/mL. For the same compound, the MIC (Strep pneumoniae CN33) was 1 µg/mL (≈ 1.92 µM), the MIC [8] was 0.2 µg/mL (≈ 0.383 µM) and the MIC [9] was 5 µg/mL (≈ 9.58 µM). For the same compound, the MIC (Ps. aeruginosa 10662) was over 100 µg/mL, the MIC (Strep uberis SPU1) was 0.625 µg/mL (≈ 1.2 µM) and the MIC (Staph aureus Oxford [10]) was 10 µg/mL (≈ 19.2 µM). It also gave an MIC (Strep pyogenes A 64/848) of 2.5 µg/mL (≈ 4.79 µM), an MIC (Staph aureus W2827) of 25 µg/mL (≈ 47.9 µM) and an MIC (E. coli E1) of over 80 µg/mL. For the same compound, the MIC (M. suipneumoniae HK(2)) was 1000 µg/mL (≈ 1920 µM), the MIC (Strep pyogenes C 2761) was 2.5 µg/mL (≈ 4.79 µM) and the MIC (Past multocida PA1) was 0.625 µg/mL (≈ 1.2 µM). The MIC (S. typhimurium S18) was over 80 µg/mL, the MIC (Strep pyogenes B 2788) was 2.5 µg/mL (≈ 4.79 µM) and the MIC [11] was “No Growth”. The MIC [12] was 0.2 µg/mL (≈ 0.383 µM), the MIC [13] was 1 µg/mL (≈ 1.92 µM) and the MIC (Strep agalactiae SPA1) was 1.25 µg/mL (≈ 2.4 µM). For the same compound, the MIC (S. dublin S7) was over 80 µg/mL, the MIC (P. mirabilis 889) was over 100 µg/mL and the MIC (Staph aureus Russell) was 10 µg/mL (≈ 19.2 µM). The MIC [16] was 80 µg/mL (≈ 153 µM), the fraction unbound [14] was 0.354 and the MIC (Bord bronchiseptica B09) was 10 µg/mL (≈ 19.2 µM). For the same compound, the MIC (Sarcina lutea 8340) was “No Growth”.
